Where a name gives a salt, the structure may show the parent alone.
Experiments:
[1] = Cytotoxicity MTT assay, 24 h, MDR cells; type: cell-based; conditions: mouse; for IC50 at 24 h: MDR cells, MTT, read-out: Cytotoxic effect IC50; for selectivity ratio at 24 h: cytotoxic action on MDR with respect to PAR cells, read-out: SI (selectivity index), cytotoxicity
Experimental: (§1) The cytotoxicity of compounds 7–20 was examined in both aforementioned PAR and MDR mouse T-lymphoma cell lines, using the MTT assay to estimate IC50 values. The selectivity index for cytotoxic action on MDR with respect to PAR cells was calculated (SI, Table 3). […] This range of SI may indicate ABCB1-efflux pump substrate properties for the whole series (7–20), especially distinct in the case of 19 (SI ≤ 0.29), and slightly weaker for 8, 12, 16, and 18.
(§2) L5178 mouse T-cell lymphoma cells (PAR) (ECACC Cat. No. 87111908, obtained from FDA, Silver Spring, MD, USA) were transfected with pHa MDR1/A retrovirus, as previously described by Cornwell et al.. The ABCB1-expressing cell line L5178Y (MDR) was selected by culturing the infected cells with colchicine. The parental L5178 mouse T-cell lymphoma cells and the L5178Y human ABCB1-transfected subline were cultured in McCoy’s 5A medium (Sigma-Aldrich, St Louis, MO, USA) supplemented with 10% heat-inactivated horse serum (Sigma-Aldrich, St Louis, MO, USA), 200 mM L-glutamine (Sigma-Aldrich, St Louis, MO, USA), and a penicillin-streptomycin (Sigma-Aldrich, St Louis, MO, USA) mixture in concentrations of 100 U/L and 10 mg/L, respectively. The cell lines were incubated at 37 °C, in a 5% CO2, 95% air atmosphere.
(§3) Cytotoxicity and antiproliferative assays were performed following the procedure described in the literature. Parental and multidrug-resistant mouse T-lymphoma cells were used to determine the effect of the arylideneimidazolones on the growth of cells. The effects of increasing concentrations of arylideneimidazolones on cell growth were tested in 96-well flat-bottomed microtiter plates. The compounds were diluted in a volume of 100 μL of medium.
(§4) In the case of the mouse T-lymphoma cells, the two-fold serial dilutions were prepared in 100 μL of McCoy’s 5A, horizontally. The parental (PAR) and multidrug-resistant (MDR) mouse T-lymphoma cells were adjusted to a density of 1 × 10^4 cells (for cytotoxic assay) and 6 × 10^3 (for antiproliferative assay) in 100 μL of McCoy’s 5A medium and were added to each well, with the exception of the medium control wells.
(§5) The culture plates were incubated at 37 °C for 24 h (for cytotoxicity assay) and 72 h (for antiproliferative assay); at the end of the incubation period, 20 μL of MTT (thiazolyl blue tetrazolium bromide, Sigma) solution (from a stock solution of 5 mg/mL) were added to each well. After incubation at 37 °C for 4 h, 100 μL of sodium dodecyl sulfate (SDS) (Sigma) solution (10% in 0.01 M HCI) were added to each well and the plates were further incubated at 37 °C overnight. Cell growth was determined by measuring the optical density (OD) at 540/630 nm with a Multiscan EX ELISA reader (Thermo Labsystems, Cheshire, WA, USA).
(§6) Results have been expressed in terms of IC50, defined as the inhibitory dose that reduces the growth of the cells exposed to the tested compounds by 50%, each representing the mean of a minimum of three independent experiments.

[2] = tested on: parental (PAR) mouse T-lymphoma cells; assay: Antiproliferative MTT assay, 72 h, PAR cells; type: cell-based; conditions: read-out: Antiproliferative effect IC50
Experimental: (§7) The ABCB1-expressing cell line L5178Y (MDR) was selected by culturing the infected cells with colchicine. The parental L5178 mouse T-cell lymphoma cells and the L5178Y human ABCB1-transfected subline were cultured in McCoy’s 5A medium (Sigma-Aldrich, St Louis, MO, USA) supplemented with 10% heat-inactivated horse serum (Sigma-Aldrich, St Louis, MO, USA), 200 mM L-glutamine (Sigma-Aldrich, St Louis, MO, USA), and a penicillin-streptomycin (Sigma-Aldrich, St Louis, MO, USA) mixture in concentrations of 100 U/L and 10 mg/L, respectively.
as §3, §4
(§8) Cell growth was determined by measuring the optical density (OD) at 540/630 nm with a Multiscan EX ELISA reader (Thermo Labsystems, Cheshire, WA, USA).

[3] = tested on: multidrug-resistant (MDR) mouse T-lymphoma cells; assay: Antiproliferative MTT assay, 72 h, MDR cells; type: cell-based; conditions: for SI (selectivity index), antiproliferative: MDR with respect to PAR cells; for IC50: Mus musculus, MDR cells, 72 h, MTT, read-out: Antiproliferative effect IC50
Experimental: as §7, §3, §4, §8

ABCB1 efflux pump = ABCB1 efflux pump (Homo sapiens, UniProt P08183); assay: Rhodamine 123 accumulation assay (flow cytometry); conditions: for FAR Quotient (%): FAR of compound related to FAR of VER tested at 20 µM; for FAR (fluorescence activity ratio): rhodamine 123 accumulation, MDR vs PAR mouse T-lymphoma cells
ABCB1 efflux pump, sequence (P08183 whole entry): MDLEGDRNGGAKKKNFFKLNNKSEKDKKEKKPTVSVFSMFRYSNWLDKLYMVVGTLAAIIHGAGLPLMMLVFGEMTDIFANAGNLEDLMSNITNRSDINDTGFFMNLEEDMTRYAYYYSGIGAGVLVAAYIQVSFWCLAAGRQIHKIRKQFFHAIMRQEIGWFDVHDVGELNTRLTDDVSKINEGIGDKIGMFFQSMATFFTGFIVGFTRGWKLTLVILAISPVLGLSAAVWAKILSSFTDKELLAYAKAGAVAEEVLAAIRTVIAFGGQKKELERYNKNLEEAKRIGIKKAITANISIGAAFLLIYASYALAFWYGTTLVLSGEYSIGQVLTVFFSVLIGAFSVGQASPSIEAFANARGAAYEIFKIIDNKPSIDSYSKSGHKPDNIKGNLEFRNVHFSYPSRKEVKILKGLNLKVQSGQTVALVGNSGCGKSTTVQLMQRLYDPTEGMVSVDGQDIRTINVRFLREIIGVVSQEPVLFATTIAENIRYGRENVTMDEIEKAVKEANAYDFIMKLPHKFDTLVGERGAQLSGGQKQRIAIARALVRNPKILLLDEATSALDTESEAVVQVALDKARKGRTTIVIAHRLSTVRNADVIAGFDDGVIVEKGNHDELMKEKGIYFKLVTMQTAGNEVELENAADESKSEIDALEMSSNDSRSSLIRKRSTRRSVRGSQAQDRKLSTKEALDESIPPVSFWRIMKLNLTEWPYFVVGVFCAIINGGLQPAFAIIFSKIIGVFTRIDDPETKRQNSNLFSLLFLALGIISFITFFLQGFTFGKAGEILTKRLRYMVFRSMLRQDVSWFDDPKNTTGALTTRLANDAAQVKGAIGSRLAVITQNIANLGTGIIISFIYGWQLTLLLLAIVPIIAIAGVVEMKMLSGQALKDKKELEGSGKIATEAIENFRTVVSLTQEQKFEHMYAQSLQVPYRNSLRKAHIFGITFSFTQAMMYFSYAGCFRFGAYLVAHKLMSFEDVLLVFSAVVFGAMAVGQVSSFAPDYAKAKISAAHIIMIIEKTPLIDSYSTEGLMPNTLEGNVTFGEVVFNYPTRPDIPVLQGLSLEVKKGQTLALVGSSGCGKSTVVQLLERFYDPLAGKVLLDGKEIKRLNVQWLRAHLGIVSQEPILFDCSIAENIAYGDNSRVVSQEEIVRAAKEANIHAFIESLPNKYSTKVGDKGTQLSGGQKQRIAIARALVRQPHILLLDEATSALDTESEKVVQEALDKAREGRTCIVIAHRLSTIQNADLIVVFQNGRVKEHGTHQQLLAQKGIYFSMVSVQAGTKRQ
Experimental: The study was carried out on mouse T-lymphoma cell lines, including the parental sensitive line (PAR) and its multidrug-resistant subline (MDR) transfected with the human MDR1 (ABCB1) gene. […] The fluorescence activity ratio (FAR), as a measure of the efflux pump modulating properties, was calculated based on the fluorescence data obtained [23, 24, 25]. […] The parental L5178 mouse T-cell lymphoma cells and the L5178Y human ABCB1-transfected subline were cultured in McCoy’s 5A medium (Sigma-Aldrich, St Louis, MO, USA) supplemented with 10% heat-inactivated horse serum (Sigma-Aldrich, St Louis, MO, USA), 200 mM L-glutamine (Sigma-Aldrich, St Louis, MO, USA), and a penicillin-streptomycin (Sigma-Aldrich, St Louis, MO, USA) mixture in concentrations of 100 U/L and 10 mg/L, respectively.
The potency of the tested compounds as inhibitors of the ABCB1 efflux pump was determined using a fluorescence-based detection system, described previously in the literature [23, 26]. […] The parental (PAR) and multidrug-resistant (MDR) mouse T-lymphoma cells were adjusted to a density of 2 × 10^6/mL, re-suspended in serum-free McCoy’s 5A medium, and distributed in 0.5 mL aliquots into Eppendorf centrifuge tubes. […] The fluorescence intensity of the cell population was measured with a Partec CyFlow flow cytometer (Partec, Munster, Germany). […] The mean fluorescence intensity (%) was calculated for the treated MDR and PAR mouse T-lymphoma cells as compared to the untreated cells.

[4] = Cytotoxicity MTT assay, 24 h, PAR cells; type: cell-based; conditions: mouse, parental (PAR) L5178 mouse T-cell lymphoma cells, read-out: Cytotoxic effect IC50
Experimental: as §1, §2, §3, §4, §5, §6

[5] = concentration 20 µM, VER values for assay group 1 / 2

Row | SMILES | melting point [°C] | IC50 [3] [µM] | FAR Quotient (%) (ABCB1 efflux pump; concentration 2 µM) | FAR (fluorescence activity ratio) (ABCB1 efflux pump; concentration 2 µM) | FAR Quotient (%) (ABCB1 efflux pump; concentration 20 µM) | FAR (fluorescence activity ratio) (ABCB1 efflux pump; [5]) | IC50 at 24 h [1] [µM] | selectivity ratio at 24 h [1] | IC50 [2] [µM] | SI (selectivity index), antiproliferative [3] | IC50 at 24 h [4] [µM]
1 | Cl.O=C1NC(N2CCOCC2)=N/C1=C\c1ccc(-c2ccccc2)cc1 [Compound 7, (Z)-5-(Biphen-4-ylmethylene)-2-morpholino-3H-imidazol-4(5H)-one hydrochloride] | 248 to 252 | 26.3 | 7.31 | 0.955 | 7.09 | 0.927 | 54.2 | 0.99 | 17.6 | 0.67 | 53.5
2 | Cl.O=C1N=C(N2CCC(N3CCOCC3)CC2)N/C1=C\c1ccc(-c2ccccc2)cc1 [Compound 8, (Z)-5-(Biphen-4-ylmethylene)-2-(4-morpholinopiperidin-1-yl)-imidazol-4(5H)-one hydrochloride] | 267 to 269 | 26 | 8.49 | 1.359 | 15.04 | 2.409 | 46.4 | 0.52 | 14.8 | 0.57 | 24
3 | Cl.O=C1N=C(N2CCC(N3CCOCC3)CC2)N/C1=C\c1cccc(Oc2ccccc2)c1 [Compound 10, (Z)-5-(3-Phenoxybenzylidene)-2-(4-morpholinopiperidin-1-yl)-imidazol-4(5H)-one hydrochloride] | 289 to 292 | 22.4 | 6.92 | 1.108 | 12.44 | 1.992 | 63.8 | 0.85 | 26.4 | 1.18 | 54
4 | Cl.O=C1N=C(N2CCC(N3CCOCC3)CC2)N/C1=C\c1c2ccccc2cc2ccccc12 [Compound 13, (Z)-5-(Anthracen-10-ylmethylene)-2-(4-morpholinopiperidin-1-yl)-imidazol-4(5H)-one hydrochloride] | 303 to 305 | 48.6 | 6.04 | 0.968 | 12.94 | 2.073 | > 100 | ≤ 0.82 | 17.4 | 0.36 | 82.2
5 | NC1=N/C(=C\c2cccc(Oc3ccccc3)c2)C(=O)N1CCCN1CCOCC1 [Compound 16] | – | 12.2 | 7.09 | 0.927 | 18.55 | 2.426 | 31.3 | 0.51 | 11.4 | 0.94 | 16
6 | Cl.NC1=N/C(=C\c2ccc(Oc3ccccc3)cc2)C(=O)N1CCCN1CCOCC1 [Compound 17, (Z)-5-(4-Phenoxybenzylidene)-2-amino-3-(3-morpholinopropyl)-imidazol-4(5H)-one hydrochloride] | 210 to 212 | 14.2 | 5.80 | 0.929 | 14.37 | 2.301 | 23.4 | 0.92 | 12.2 | 0.85 | 21.5
7 | Cl.NC1=N/C(=C\c2cc3ccccc3c3ccccc23)C(=O)N1CCCN1CCOCC1 [Compound 20, (Z)-5-(Phenanthren-9-ylmethylene)-2-amino-3-(3-morpholinopropyl)-imidazol-4(5H)-one hydrochloride] | 238 to 240 | 17.3 | 5.59 | 0.896 | 7.72 | 1.237 | 24.9 | 0.79 | 14.8 | 0.85 | 19.6

Now from value to molecule, other results behind:

Row | melting point [°C] | IC50 [3] [µM] | FAR Quotient (%) (ABCB1 efflux pump; concentration 2 µM) | FAR (fluorescence activity ratio) (ABCB1 efflux pump; concentration 2 µM) | FAR Quotient (%) (ABCB1 efflux pump; concentration 20 µM) | FAR (fluorescence activity ratio) (ABCB1 efflux pump; [5]) | SMILES | IC50 at 24 h [1] [µM] | selectivity ratio at 24 h [1] | IC50 [2] [µM] | SI (selectivity index), antiproliferative [3] | IC50 at 24 h [4] [µM]
8 | 266 to 270 | – | – | – | – | – | NC1=N/C(=C\c2ccc(-c3ccccc3)cc2)C(=O)N1CCN1CCOCC1 (as salt: hydrochloride) [Compound 14] | – | – | – | – | –
9 | 305 to 307 | 16.5 | 5.86 | 0.766 | 12.58 | 1.645 | Cl.O=C1N=C(N2CCN(CCN3CCOCC3)CC2)N/C1=C\c1ccc(-c2ccccc2)cc1 [Compound 9, (Z)-5-(Biphen-4-ylmethylene)-2-(4-(2-morpholinoethyl)piperazin-1-yl)-imidazol-4(5H)-one hydrochloride] | 18.1 | 0.71 | 7.78 | 0.47 | 12.8
10 | – | 27.9 | 6.22 | 0.814 | 6.48 | 0.847 | NC1=N/C(=C\c2ccc(-c3ccccc3)cc2)C(=O)N1CCN1CCOCC1 [Compound 14] | 57.4 | 0.64 | 24.9 | 0.89 | 36.9
11 | 248 to 252 | 13.6 | 6.78 | 0.887 | 16.98 | 2.221 | Cl.NC1=N/C(=C\c2ccc(-c3ccccc3)cc2)C(=O)N1CCCN1CCOCC1 [Compound 15, (Z)-5-(Biphen-4-ylmethylene)-2-amino-3-(3-morpholinopropyl)-imidazol-4(5H)-one hydrochloride] | 20.8 | 0.84 | 10.3 | 0.75 | 17.5
12 | – | 43.8 | 7.94 | 1.272 | 10.08 | 1.615 | NC1=N/C(=C\c2c3ccccc3cc3ccccc23)C(=O)N1CCCN1CCOCC1 [Compound 19] | > 100 | ≤ 0.29 | 14.4 | 0.33 | 28.6
13 | – | 1.75 | – | – | – | – | COc1cccc2c1C(=O)c1c(O)c3c(c(O)c1C2=O)C[C@@](O)(C(=O)CO)C[C@@H]3O[C@H]1C[C@H](N)[C@H](O)[C@H](C)O1 [DOX, doxorubicin, reference compound] | 2.14 | 0.33 | 0.28 | 0.16 | 0.7
